The values below come from patent publication US8436028B2, “CETP inhibitors derived from benzoxazole arylamides” (Merck Sharp & Dohme Corp, priority 2007, dated 2013).

In this experiment the target is T1, recombinant human CETP (Homo sapiens, UniProt P11597).
T1 construct: made in house; host or cells: CHO cells
T1 sequence (P11597 18-493): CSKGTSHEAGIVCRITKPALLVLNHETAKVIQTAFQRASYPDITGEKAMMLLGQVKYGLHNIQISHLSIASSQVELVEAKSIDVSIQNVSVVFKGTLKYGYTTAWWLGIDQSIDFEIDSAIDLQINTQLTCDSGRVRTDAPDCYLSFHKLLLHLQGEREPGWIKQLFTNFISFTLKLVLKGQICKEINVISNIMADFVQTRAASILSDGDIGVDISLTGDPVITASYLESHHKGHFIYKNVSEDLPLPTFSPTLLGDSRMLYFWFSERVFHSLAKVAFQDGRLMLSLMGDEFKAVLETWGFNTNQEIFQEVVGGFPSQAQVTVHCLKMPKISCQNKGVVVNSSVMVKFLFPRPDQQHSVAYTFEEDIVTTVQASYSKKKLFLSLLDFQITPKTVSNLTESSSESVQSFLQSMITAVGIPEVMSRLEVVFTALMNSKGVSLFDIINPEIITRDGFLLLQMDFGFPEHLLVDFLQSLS
Briefly: CETP assay, CE transfer reaction (BODIPY-CE fluorescence, continuous). In kind it is biochemical. The following applies: 3% human serum, 25° C., read-out: IC50 value as measured for the CE transfer reaction. On the procedure: An in vitro continuous assay for determining IC50's to identify compounds that are CETP inhibitors was performed based on a modification of the method described by Epps et al. employing BODIPY®-CE as the cholesteryl ester lipid donor and BODIPY®-TG as the triglyceride lipid donor. See Epps et al. (1995) Method for measuring the activities of cholesteryl ester transfer protein (lipid transfer protein), Chem. Phys. Lipids. 77, 51-63.
Particles used in the assay were created from the following materials by probe sonication essentially as described by Epps et al. Synthetic cholesteryl ester (CE) donor HDL particles contained DOPC (Dioleoyl Phosphatidyl Choline), BODIPY®-CE (Molecular Probes C-3927), triolein (a triglyceride), dabcyl dicetylamide, (a non-diffusable quencher molecule to reduce background fluorescence) and apoHDL. Synthetic triglyceride (TG) donor HDL particles contained DOPC, BODIPY®-TG, and apoHDL. BODIPY®-TG was synthesized at room temperature from diolein and the BODIPY containing fatty acid analog 4,4-difluoro-5-(2-thienyl)-4-bora-3a,4a-diaza-s-indacene-3-dodecanoic acid (Molecular Probes) in methylene chloride in the presence of dicyclohexyl carbodimide. Dabcyl dicetylamide was made by heating dabcyl n-succinimide with dicetylamine in DMF at 95° C. overnight in the presence of diisopropylamine catalyst. Native lipoproteins from human blood were used as acceptor particles. Particles having a density less than 1.063 g/ml were collected by ultracentrifugation. These particles include VLDL, IDL, and LDL. Particle concentrations were expressed in terms of protein concentration as determined by BCA assay (Pierce, USA). Particles were stored at 4° C. until use.
Assays were performed in Dynex Microfluor 2 U-bottom black 96-well plates (Cat #7205). An assay cocktail containing CETP, 1×CETP buffer (50 mM Tris, pH 7.4, 100 mM NaCl, 1 mM EDTA), 3% human serum, and half the final concentration of acceptor particles was prepared, and 100 μL of the assay cocktail was added to each well of the plate. Test compounds in DMSO were added in a volume of […]. The plate was mixed on a plate shaker and then incubated at 25° C. for 1 hour. A second assay cocktail containing donor particles, the remaining acceptor particles and 1×CETP buffer was prepared. 47 μL of the second assay cocktail was added to the reaction wells to start the assay. Assays were performed in a final volume of 150 μL. CE transfer reactions were performed as follows: final concentrations of materials were: 2.5 ng/μL CE donor particles, 7.5 ng/μL acceptor particles (each expressed by protein content), 1×CETP buffer, 14-30 nM recombinant human CETP (expressed in CHO cells and partially purified), and up to 2% DMSO when testing compounds; reactions were followed in a fluorescence plate reader (Molecular Devices Spectramax GeminiXS) set for a 45 minute kinetic run at 25° C. which read the samples every 45 sec at Ex=480 nm, Em=511 nm, with a cutoff filter at 495 nm, photomultiplier tube setting of medium, calibration on, and 6 reads/well. TG transfer reactions were performed as described above with the exception that 2.5 ng/uL TG donor particles were used. TG transfer was measured at an excitation wavelength of 538 nm while reading emission at 568 nm every 45 sec for 45 min at 37° C. with a cutoff filter at 550 nm.
Data were evaluated by obtaining an initial rate, expressed in relative fluorescence units per second, for the pseudolinear portion of the curve, often 0-500 or 1000 sec. Comparison of the rates of samples with inhibitors to an uninhibited (DMSO only) positive control yielded a percent inhibition. A plot of percent inhibition vs. log of inhibitor concentration, fit to a Sigmoidal 4 parameter equation was used to calculate […].
In the case of `CC(C)c1cc(C#N)cc2nc(-c3ccc(C(=O)NC[C@H]4CC[C@@H](c5ccc(C(C)(C)C)cc5)CC4)cc3)oc12` [Example 64], the IC50 was 12 to 41 nM. As to `CC(C)c1cc(C#N)cc2nc(-c3ccc(C(=O)NC[C@H]4CC[C@H](c5cc6ccccc6n5C)CC4)cc3)oc12` [Example 81], the IC50 was 12 to 41 nM. With `CC(C)c1cc(C#N)cc2nc(-c3ccc(C(=O)NC[C@H]4CC[C@H](CCOC(C)(C(F)(F)F)C(F)(F)F)CC4)cc3)oc12` [Example 45, 4-(5-Cyano-7-isopropyl-1,3-benzoxazol-2-yl)-N-[(trans-4-{2-[2,2,2-trifluoro-1-methyl-1-(trifluoromethyl)ethoxy]ethyl}cyclohexyl)methyl]benzamide], the 50% inhibitory concentration (IC50) fell in the range of 12 to 41 nM. On to `Cc1ccc2c(c1)cc(C1=CCC(CNC(=O)c3ccc(-c4nc5cc(C#N)cc(C(C)C)c5o4)cc3)CC1)n2C(=O)OC(C)(C)C` (stereo not shown) [Example 76], for which the half-inhibitory concentration (IC50) lay in the range of 12 to 41 nM.

Regarding `CC(C)c1cc(C#N)cc2nc(-c3ccc(C(=O)NCC4CC=C(Cc5ccc(C(F)(F)F)cc5)CC4)cc3)oc12` (stereo not shown) [Example 47, 4-(5-Cyano-7-isopropyl-1,3-benzoxazol-2-yl)-N-({4-[4-(trifluoromethyl)benzyl]cyclohex-3-en-1-yl}methyl)benzamide], the IC50 was in the range of 12 to 41 nM. As for `CC(C)c1cc(C#N)cc2nc(-c3ccc(C(=O)NC[C@H]4CC[C@H](c5cc6ccccc6o5)CC4)cc3)oc12` [Example 82], the figure is 12 to 41 nM; as for `CC(C)c1cc(C#N)cc2nc(-c3ccc(C(=O)NC[C@H]4CC[C@H](c5ccc(C(F)(F)F)cc5)CC4)cc3)oc12` [Example 53], 12 to 41 nM; as for `CC(C)c1cc(C#N)cc2nc(-c3ccc(C(=O)NCC4(c5ccccc5)CCCCC4)cc3)oc12` [Example 48], 12 to 41 nM. As to `CC(C)c1cc(C#N)cc2nc(-c3ccc(C(=O)NC[C@H]4CC[C@H](c5ccc(C(C)(C)C)cc5)CC4)cc3)oc12` [Example 65], the IC50 fell in the range of 12 to 41 nM.

`CC(C)c1cc(C#N)cc2nc(-c3ccc(C(=O)NC[C@H]4CC[C@H](CC(=O)Nc5cc(C(F)(F)F)ccn5)CC4)cc3)oc12` [Example 44, 4-(5-Cyano-7-isopropyl-1,3-benzoxazol-2-yl)-N-{[trans-4-(2-oxo-2-{[4-(trifluoromethyl)pyridin-2-yl]amino}ethyl)cyclohexyl]methyl}benzamide]: the IC50 lay within 12 to 41 nM.

The IC50 is the concentration that gives 50% inhibition.
